Patent US20250236619A1, “FUSED BICYCLIC COMPOUND CONTAINING PYRROLINONE” (CHIA TAI TIANQING PHARMACEUTICAL GROUP CO., LTD., priority 2022, published 2025)
Like-named read-outs stand apart in the source and are kept apart here.

Assays:
HPK1 kinase = HPK1 kinase (Homo sapiens (Human), UniProt Q92918); test: Assay for in vitro inhibitory activity against HPK1 kinase; type: biochemical; settings: HPK1 1 ng/μL, ATP 1 mM, STK Substrate 1-biotin 500 nM
Protocol: Experimental Example 1: Assay for In Vitro Inhibitory Activity Against HPK1 Kinase A kinase buffer (Enzymatic buffer 5×) was diluted to 1×, and 10 mM MgCl2, 1 mM DTT, and 0.005% Tween 20 were added. A 100 ng/μL HPK1 (Life technology) stock solution was diluted with the kinase buffer to obtain a 1.67×, 1.67 ng/μL working solution (final concentration: 1 ng/μL), and the working solution was seeded in a 384-well plate at 6 μL/well. Different compounds dissolved in DMSO were added to the wells using a nanoliter pipettor to obtain final concentrations of the compounds of 1000 nM to 0.244 nM (4-fold serial dilution, 7 concentrations in total), and blank control wells (without enzyme) and negative control wells (with enzyme, plus vehicle DMSO) were set; the wells were set in duplicate. After the enzyme and the compounds were incubated at room temperature for 1 h, a 5×, 5 mM ATP dilution (final concentration: 1 mM) in the kinase buffer was mixed with a 5×, […] substrate (Cisbio, STK Substrate 1-biotin; final concentration: 500 nM) in equal volume, and the mixture was added to the plate at 4 µL/well. The plate was sealed with a film and then incubated at room temperature for 2 h. An assay antibody solution was prepared by mixing the antibody STK Antibody-cryptate (Cisbio, 5 μL/test) and a 4×, 500 nM Streptavidin-XL665 (Cisbio; final concentration: 125 nM) in equal volume and added to the plate at 10 μL/well. The plate was incubated at room temperature for 1 h. The signal values (excitation: […]) were measured using a PE Envision multimode microplate reader, and IC50 was calculated by four-parameter fitting.

[1] = system: p-SLP76 phosphorylation of Jurkat cells; test: Assay for inhibitory activity against p-SLP76 phosphorylation of Jurkat cells; type: cell-based; settings: stimulator CD3CD28, 30 min, read-out: IC50 (nM) for inhibition of p-SLP76 phosphorylation of Jurkat cells
Protocol: 2.1 Assay for Inhibitory Activity Against p-SLP76 Phosphorylation of Jurkat Cells
Jurkat cells in a good growth state were added to a centrifuge tube, centrifuged, and resuspended. The cell density was adjusted to 6.25×10^6 cells/mL, and the cells were seeded in a 384-well small-volume white plate at […]. Different compounds dissolved in DMSO were added to the wells using a nanoliter pipettor to obtain final concentrations of the compounds of 2500 nM to 10.29 nM, and a control was set; the wells were set in duplicate. After 1 h of cell culture, the stimulator CD3CD28 (manufacturer: stemcell, 4 μL) was added and the cells were incubated at 37° C. for 30 min. 3 μL of lysis buffer (manufacturer: BioAuxilium) was added to each well, and the plate was shaken at room temperature for 30 min. After the lysate was well mixed, 5 μL of pre-mixed antibody (manufacturer: BioAuxilium) in assay buffer was added and the plate was incubated overnight at room temperature. The signal values were measured on a PerkinElmer Envision multimode microplate reader (excitation: 320 nm, emission: 615 nm/665 nm), and IC50 was calculated by four-parameter filling.

Chain of HPK1 kinase (Q92918 whole entry): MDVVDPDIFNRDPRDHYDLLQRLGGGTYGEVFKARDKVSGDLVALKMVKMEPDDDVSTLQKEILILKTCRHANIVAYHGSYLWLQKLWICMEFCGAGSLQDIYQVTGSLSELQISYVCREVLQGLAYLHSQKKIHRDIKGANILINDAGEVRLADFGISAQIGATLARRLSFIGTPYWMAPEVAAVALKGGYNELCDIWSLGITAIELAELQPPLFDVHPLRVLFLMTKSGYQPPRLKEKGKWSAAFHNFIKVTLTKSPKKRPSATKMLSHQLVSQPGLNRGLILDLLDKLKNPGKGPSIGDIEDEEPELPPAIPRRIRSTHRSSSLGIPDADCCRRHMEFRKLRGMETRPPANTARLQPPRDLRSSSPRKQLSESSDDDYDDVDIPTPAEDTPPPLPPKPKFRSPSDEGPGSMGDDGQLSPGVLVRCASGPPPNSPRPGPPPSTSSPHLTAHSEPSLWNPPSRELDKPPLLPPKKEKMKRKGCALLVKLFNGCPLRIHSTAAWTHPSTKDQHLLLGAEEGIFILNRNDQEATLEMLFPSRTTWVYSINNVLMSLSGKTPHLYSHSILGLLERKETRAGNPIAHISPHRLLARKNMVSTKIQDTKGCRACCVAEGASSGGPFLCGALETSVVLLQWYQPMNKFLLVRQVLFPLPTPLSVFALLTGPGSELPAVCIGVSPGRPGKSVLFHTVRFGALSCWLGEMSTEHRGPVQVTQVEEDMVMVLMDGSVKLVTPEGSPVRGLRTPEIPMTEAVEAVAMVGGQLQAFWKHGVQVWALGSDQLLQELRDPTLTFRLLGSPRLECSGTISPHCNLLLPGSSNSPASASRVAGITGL

| IC50 ([1]; Homo sapiens, 0.5 h) [nM] | Structure (SMILES) | IC50 (HPK1 kinase) [nM] | IC50 [1] [nM] |
| --- | --- | --- | --- |
| < 50 | CN(C)Cc1nc(Nc2cnc(-c3ccnc4c3c3c(n4C)CCC3)c3c2C(=O)NC3)ccc1C1CCOCC1 [Compound I-6] | 2.5 |  |
| < 50 | CN(C)Cc1nc(Nc2ccc(-c3ccnc4c3c3c(n4C)CCC3)c3c2C(=O)NC3)ccc1C1CCOC1 (stereo not drawn) [Compound I-8] | 3.1 |  |
| 50 to 100 | CN(C)Cc1nc(Nc2cnc(-c3ccnc4c3c3c(n4C)CCC3)c3c2C(=O)NC3)ccc1C1(O)CCOCC1 [Compound I-10] | 5.6 |  |
|  | CN(C)Cc1nc(Nc2ccc(-c3cnn4ccc5ccoc5c34)c3c2C(=O)NC3)ccc1C1CCOCC1 [Compound I-11] | 1.6 |  |
|  | CN(C)Cc1nc(Nc2ccc(-c3ccnc4c3c3c(n4C)CCC3)c3c2C(=O)NC3)ccc1N1CC[C@@H](O)C1 [Compound I-12] | 5.1 |  |
|  | CN(C)Cc1nc(Nc2cnc(-c3ccnc4c3c3c(n4C)CCC3)c3c2C(=O)NC3)ccc1N1CCOCC1 [Compound I-13] | 3.5 |  |
|  | [2H]C([2H])([2H])N(Cc1nc(Nc2cnc(-c3ccnc4c3c3c(n4C)CCC3)c3c2C(=O)NC3)ccc1C1CCOCC1)C([2H])([2H])[2H] [Compound I-14] | 1.4 |  |
| < 50 | [2H]C([2H])(c1nc(Nc2cnc(-c3ccnc4c3c3c(n4C)CCC3)c3c2C(=O)NC3)ccc1C1CCOCC1)N(C)C [Compound I-17] |  |  |
|  | CN(C)Cc1nc(Nc2ccc(-c3nnc4ccc5c(n34)CCC5)c3c2C(=O)NC3)ccc1C1CCOCC1 [Compound I-18] | 9.8 |  |
|  | CN(C)Cc1nc(Nc2ccc(-c3ncnc4c3c3c(n4C)CCC3)c3c2C(=O)NC3)ccc1C1CCOCC1 [Compound I-20] | 3.2 |  |
|  | CN(C)Cc1nc(Nc2ccc(-c3ncnc4[nH]c5ccccc5c34)c3c2C(=O)NC3)ccc1C1CCOCC1 [Compound I-22] | 7.5 | 50 to 100 |
| 50 to 100 | CN(C)Cc1nc(Nc2ccc(-c3ncnc4[nH]c5c(c34)CCC5)c3c2C(=O)NC3)ccc1C1CCOCC1 [Compound I-24] |  |  |
|  | CN(C)Cc1nc(Nc2ccc(-c3nnc4cc5c(nn34)CCC5)c3c2C(=O)NC3)ccc1C1CCOCC1 [Compound I-26] | 16 |  |
|  | CN(C)Cc1nc(Nc2ccc(-c3nnc4cc5c(cn34)CCC5)c3c2C(=O)NC3)ccc1C1CCOCC1 [Compound I-27] | 23 |  |
| < 50 | CN(C)Cc1nc(Nc2ccc(-c3cnc4ccc5occc5n34)c3c2C(=O)NC3)ccc1C1CCOCC1 [Compound I-28] | 2 |  |
|  | CN(C)Cc1nc(Nc2ccc(-c3cnn4cc5c(nc34)CCC5)c3c2C(=O)NC3)ccc1C1CCOCC1 [Compound I-30] | 3.6 | 50 to 100 |
|  | CN(C)Cc1nc(Nc2ccc(-c3cnc4ccc5c(ccn5C)n34)c3c2C(=O)NC3)ccc1C1CCOCC1 [Compound I-32] | 4.4 | < 50 |
|  | CN(C)Cc1nc(Nc2ccc(-c3nnc4ccc5occc5n34)c3c2C(=O)NC3)ccc1C1CCOCC1 [Compound I-33] | 2.9 | < 50 |
| < 50 | CN(C)Cc1nc(Nc2ccc(-c3cnn4c3CC3(CC3)C4)c3c2C(=O)NC3)ccc1C1CCOCC1 [Compound I-34] |  |  |
| 50 to 100 | CN(C)Cc1nc(Nc2ccc(-c3cnc4ccc5c(n34)CCO5)c3c2C(=O)NC3)ccc1C1CCOCC1 [Compound I-35] |  |  |
|  | CN(C)Cc1nc(Nc2ccc(-c3nnc4ccc5c(n34)OCC5)c3c2C(=O)NC3)ccc1C1CCOCC1 [Compound I-36] | 5.3 | 50 to 100 |
| < 50 | CN(C)Cc1nc(Nc2ccc(-c3cnn4ccc5occc5c34)c3c2C(=O)NC3)ccc1C1CCOCC1 [Compound I-38] |  |  |
|  | CN(C)Cc1nc(Nc2cnc(-c3cnc4ccc5sccc5n34)c3c2C(=O)NC3)ccc1C1CCOCC1 [Compound I-41] | 18 |  |
|  | CN(C)Cc1nc(Nc2ccc(-c3cnc4n3C3CC3C4)c3c2C(=O)NC3)ccc1C1CCOCC1 (stereo not drawn) [Compound I-43] | 16 |  |
| < 50 | CN(C)Cc1nc(Nc2ccc(-c3cnc4ccc5c(n34)OCC5)c3c2C(=O)NC3)ccc1C1CCOCC1 [Compound I-44] | 3.5 |  |
| < 50 | CN(C)Cc1nc(Nc2ccc(-c3cnc4ccc5occc5n34)c3c2C(=O)NC3)ccc1C1(O)CCOCC1 [Compound I-45] | 3.4 |  |

| IC50 ([1]; Homo sapiens, 0.5 h) [nM] | Structure (SMILES) | IC50 (HPK1 kinase) [nM] | IC50 [1] [nM] |
| --- | --- | --- | --- |
| < 50 | CN(C)Cc1nc(Nc2cnc(-c3cnn4ccc5occc5c34)c3c2C(=O)NC3)ccc1C1CCOCC1 [Compound I-46] |  |  |
| < 50 | CN(C)Cc1nc(Nc2cnc(-c3cnn4ccc5occc5c34)c3c2C(=O)NC3)ccc1N1CCOCC1 [Compound I-47] |  |  |
| < 50 | CN(C)Cc1nc(Nc2ccc(-c3cnc4cnc5occc5n34)c3c2C(=O)NC3)ccc1C1CCOCC1 [Compound I-48] |  |  |
|  | CN(C)Cc1nc(Nc2ccc(-c3cnn4ccc5occc5c34)c3c2C(=O)NC3)ccc1N1CCN(C)C1=O [Compound I-49] | 6.1 | < 50 |
|  | CN(C)Cc1nc(Nc2ccc(-c3cnn4ccc5occc5c34)c3c2C(=O)NC3)ccc1N1CCCC1=O [Compound I-51] | 5.8 | < 50 |
| < 50 | CN(C)Cc1nc(Nc2ccc(-c3cnc4ccc5occc5n34)c3c2C(=O)NC3)ccc1N1CCCC1=O [Compound I-52] |  |  |
| < 50 | [2H]C([2H])(c1nc(Nc2ccc(-c3cnn4c3CC3(CC3)C4)c3c2C(=O)NC3)ccc1C1CCOCC1)N(C)C [Compound I-53] |  |  |
| < 50 | CN(C)Cc1nc(Nc2ccc(-c3cnc4cnc5occc5n34)c3c2C(=O)NC3)ccc1C1CCOC1 (stereo not drawn) [Compound I-54] |  |  |
| < 50 | CN(C)Cc1nc(Nc2ccc(-c3cnn4ccc5occc5c34)c3c2C(=O)NC3)ccc1C1CC(=O)N(C)C1 (stereo not drawn) [Compound I-59] |  |  |
| < 50 | CN(C)Cc1nc(Nc2ccc(-c3cnn4ccc5occc5c34)c3c2C(=O)NC3)ccc1C1CCN(C)C(=O)C1 (stereo not drawn) [Compound I-60] | 2.8 |  |
| 50 to 100 | CN(C)Cc1nc(Nc2ccc(-c3cnc4cnc5occc5n34)c3c2C(=O)NC3)ccc1C1CCN(C)C(=O)C1 (stereo not drawn) [Compound I-61] |  |  |
| < 50 | CN(C)Cc1nc(Nc2ccc(-c3cnn4ccc5occc5c34)c3c2C(=O)NC3)ccc1C1CCCO1 (stereo not drawn) [Compound I-64] |  |  |
| < 50 | CN(C)Cc1nc(Nc2ccc(-c3cnc4ccc5occc5n34)c3c2C(=O)NC3)ccc1C1CCN(C)C(=O)C1 (stereo not drawn) [Compound I-66] |  |  |
| < 50 | CN(C)Cc1nc(Nc2ccc(-c3cnn4c3CC3(CC3)C4)c3c2C(=O)NC3)ccc1C1CCN(C)C(=O)C1 (stereo not drawn) [Compound I-67] |  |  |
|  | CN(C)Cc1nc(Nc2ccc(-c3cnc4cnc5occc5n34)c3c2C(=O)NC3)ccc1[C@@H]1CCN(C)C(=O)C1 [Compound I-68] | 7.7 |  |
|  | CN(C)Cc1nc(Nc2ccc(-c3cnc4cnc5occc5n34)c3c2C(=O)NC3)ccc1[C@H]1CCN(C)C(=O)C1 [Compound I-69] | 3.7 | < 50 |
| < 50 | CC(=O)N(C)c1ccc(Nc2ccc(-c3cnn4ccc5occc5c34)c3c2C(=O)NC3)nc1CN(C)C [Compound I-70] |  |  |
|  | CN(C)Cc1nc(Nc2ccc(-c3cnc4ccc5occc5n34)c3c2C(=O)NC3)ccc1[C@H]1CCN(C)C(=O)C1 [Compound I-72] | 3.7 | < 50 |
|  | CN(C)Cc1nc(Nc2ccc(-c3cnc4ccc5occc5n34)c3c2C(=O)NC3)ccc1[C@@H]1CCN(C)C(=O)C1 [Compound I-73] | 2.9 | < 50 |
|  | CN(C)Cc1nc(Nc2ccc(-c3cnn4c3CC3(CC3)C4)c3c2C(=O)NC3)ccc1N1CCN(C)C(=O)C1 [Compound I-75] | 3.4 | 50 to 100 |
| < 50 | CN(C)Cc1nc(Nc2ccc(-c3cnn4ccc5occc5c34)c3c2C(=O)NC3)ccc1N1CCN(C)C(=O)C1 [Compound I-76] |  |  |
| < 50 | CN(C)Cc1nc(Nc2ccc(-c3cnc4cnc5occc5n34)c3c2C(=O)NC3)ccc1C1CCN(C)CC1 [Compound I-80] |  |  |
| < 50 | CN(C)Cc1nc(Nc2ccc(-c3cnn4ccc5occc5c34)c3c2C(=O)NC3)ccc1-c1ccn(C)c(=O)c1 [Compound I-81] |  |  |
|  | CN(C)Cc1nc(Nc2ccc(-c3ccnc4c3cc3n4CCC3)c3c2C(=O)NC3)ccc1C1CCN(C)C(=O)C1 (stereo not drawn) [Compound I-82] | 3 |  |
| < 50 | CNCc1nc(Nc2ccc(-c3cnn4ccc5occc5c34)c3c2C(=O)NC3)sc1C1CCOCC1 [Compound I-85] |  |  |
